Results on 17 compounds are retold here after patent US20260097106A1, “AVIRULENT LIVE BACTERIAL VACCINES CURED OF PLASMIDS CONTAINING ANTIMICROBIAL RESISTANCE GENES” (Drs. Koehnk & Feldman, LLP, priority 2022, published 2026).

Read-outs that look alike come from different tables or passages of the source.

The subject of assay [1] is K88 Pre-Cured cells (ECMS091703HM-competent). Description: Antibiotic sensitivity (Int/MIC) at Iowa State University. In kind it is cell-based, E. coli. To be noted: Table 7, E. COS. As to the method:
(§1) The antibiotic sensitivity of Entero Vac K88 cells cured of plasmids that contain AMR genes (MS-K88-030321HM-PC2BSRAK88) was performed at Iowa State University (ISU) with comparison to ECMS091703HM-competent cells.

For assay [2], the system named is K88 Cured vaccine (MS-K88-030321HM-PC2BSRAK88). The assay is described as above. In kind it is cell-based, E. coli. The following applies: for MIC: Table 7, E. COS, K88 Cured vaccine; for Antibiotic sensitivity of cured cells (in words): cured MS-K88-030321HM-PC2BSRAK88 cells compared with ECMS091703HM-competent cells. As to the method: as §1
In assay [3] the test system is F18 Cured vaccine (MS060520HM-PCISRAF18). The description is as above. The following applies: for MIC: F18 Cured vaccine; for Antibiotic resistance of cured cells (in words): cured MS060520HM-PCISRAF18 cells over MS112101HM-competent cells. In kind it is cell-based, E. coli. The method, then: (§2) The antibiotic sensitivity of Edema Vac F18 cells cured of plasmids that contain AMR genes (MS060520HM-PCISRAF18) was performed at Iowa State University (ISU) (Accession: 2020076670) with comparison to MS112101HM-competent cells (see Tables 4 and 5).

For assay [4], the system named is F18 Pre-Cured cells (MS112101HM-competent). Described as above. In kind it is cell-based, E. coli. The following applies: Table 4, E. COLH. The method, then:
as §2

In assay [5] the test system is MS112101HM-competent (competent Edema Vac F18 cells). Description: AMR disc testing on Mueller Hinton agar plates. In kind it is cell-based, E. coli. The following applies: antibiotic disc. The method, then:
(§3) AMR testing was performed comparing MS112101HM—SR, MS112101HM-AMR5, and MS112101HM-competent cells cultured on Mueller Hinton agar plates using Sulfatrim (SXT), Tetracycline (TE 30), Neomycin (NE 30), Sulfathiazine (ST 0.25), and Gentamicin (GM 10) discs.

For assay [6], the system named is MS112101HM-SR (Edema Vac F18 cells cured of plasmids that contain AMR genes). Description: AMR disc testing on Mueller Hinton agar plates. In kind it is cell-based, E. coli. The following applies: for Ring measurement (radius, mm): antibiotic disc, Mueller Hinton plates, MS112101HM-SR; for Resistance of the strain to the antibiotic (in words): disc test, MS112101HM-SR compared with MS112101HM-competent. As to the method: as §3

Assay [7] deals with MS112101HM-AMR5 (Edema Vac F18 transformed with AMR5 plasmid). Description: AMR disc testing on Mueller Hinton agar plates. In kind it is cell-based, E. coli. To be noted: for Ring measurement (radius, mm): antibiotic disc, Mueller Hinton plates. As to the method:
as §3

Assay [8] deals with ECMS091703HM-SR (Entero Vac K88 cells cured of plasmids that contain AMR genes). Description: AMR disc testing on Mueller Hinton agar plates. In kind it is cell-based, E. coli. The method, then:
AMR testing was performed comparing ECMS091703HM-SR and ECMS091703HM-competent cells cultured on Mueller Hinton agar plates using Neomycin (NE 30) and Sulfathiazine (ST 0.25) discs. A master plate of ECMS091703HM-SR was produced as follows: subculturing a colony of ECMS091703HM-SR from LB agar containing 5% sucrose on new LB agar containing 5% sucrose, incubating overnight at 37° C., and storing sealed at 2-8° C.

Assay [9] has as its system Entero Vac K88 strain of E. coli vaccine. To be noted: TSB media, overnight 37° C. The method, then:
(§4) Testing for resistance of the live avirulent E. coli strains, Entero Vac K88 and Edema Vac F18, to sodium chlorite was performed by evaluating the minimum inhibitory concentration of sodium chlorite as follows: Serial dilutions of sodium chlorite were prepared from a 100 mM stock solution using sterile TSB media and filter sterilized through 0.22 μm filter. Serially diluted tubes (5 ml each) were inoculated with either Entero Vac K88 or Edema Vac F18 strains of E. coli vaccine by adding 20 μl of 100 dose size of either Entero Vac K88 or Edema Vac F18 vaccine rehydrated in 5 ml TSB media. Positive controls are inoculated TSB media only, negative controls are uninoculated TSB media. All tubes were incubated overnight at 37° C. and turbidity was visualized the following day. Results of the MIC tests are disclosed in Table 1.

The test system of assay [10] is Edema Vac F18 strain of E. coli vaccine. To be noted: TSB media, overnight 37° C. As to the method:
as §4

As for `CN1C[C@@H]2C[C@H]1CN2c1cc2c(cc1F)c(=O)c(C(=O)O)cn2C1CC1` [Danofloxacin], the MIC entry is on record as “NI/<=0.1200” in assay [1]; “NI/<=0.1200” in assay [2]; “NI/<=0.1200” in assay [3] (Table 4, E. COLH); “NI/<=0.1200” in assay [3] (Table 5, E. COS); “NI/<=0.1200” in [4].
Consider `CS(=O)(=O)c1ccc([C@@H](O)[C@@H](CF)NC(=O)C(Cl)Cl)cc1` [Florfenicol], for which the “Antibiotic sensitivity of cured cells (in words)” value (shortened to “Antibiotic sensitivity”) in assay [2] is recorded as “more sensitive”. Moreover, the “Antibiotic resistance of cured cells (in words)” value (“Antibiotic resistance” below) in assay [3] was “loss of antibiotic resistance”.
With `CCCN1C[C@H](C)[C@@H](O)[C@](C)(O)[C@@H](CC)OC(=O)[C@H](C)[C@@H](O[C@H]2C[C@@](C)(OC)[C@@H](O)[C@H](C)O2)[C@H](C)[C@@H](O[C@@H]2O[C@H](C)C[C@H](N(C)C)[C@H]2O)[C@](C)(O)C[C@H]1C` [Gamithromycin], the MIC entry in assay [1] is on record as “NI/>8.0000”; in [2], “NI/8.0000 ^”; in assay [3] (Table 4, E. COLH), “NI/4.0000 ^”; in assay [3] (Table 5, E. COS) it was “NI/8.0000 ^”; in [4], “NI/4.0000 ^”.
Turning to `CN[C@@H]1[C@H](O)[C@H](NC)[C@H]2O[C@@]3(O)C(=O)C[C@@H](C)O[C@H]3O[C@@H]2[C@H]1O` [Spectinomycin], the MIC result in assay [1] is on record as “NI/>64.0000”; in assay [2] it was “NI/<=8.0000”; in [3] (Table 4, E. COLH) it was “NI/16.0000”; in assay [3] (Table 5, E. COS) it was “NI/<=8.0000”; in [4], “NI/>64.0000”.
In the case of `COc1cc(NS(=O)(=O)c2ccc(N)cc2)nc(OC)n1` [Sulfadimethoxine], the “Antibiotic sensitivity” value in assay [2] is “more sensitive”. Moreover, the “Antibiotic resistance” value in assay [3] is “loss of antibiotic resistance”.
Consider `CN(C)[C@@H]1C(O)=C(C(N)=O)C(=O)[C@@]2(O)C(O)=C3C(=O)c4c(O)cccc4[C@@](C)(O)[C@H]3C[C@@H]12` [Tetracycline], for which the “Ring measurement (radius, mm)” value in assay [5], in assay [6] and in assay [7] was 0 mm throughout.
As for `C=C[C@]1(C)C[C@@H](OC(=O)CSCCN(CC)CC)[C@]2(C)[C@H](C)CC[C@]3(CCC(=O)[C@H]32)[C@@H](C)[C@@H]1O` [Tiamulin], the “Antibiotic resistance” value in assay [3] is recorded as “retained resistance”.
For the compound `CC[C@H]1OC(=O)C[C@@H](O)[C@H](C)[C@@H](O[C@@H]2O[C@H](C)[C@@H](O)[C@H](N(C)C)[C@H]2O)[C@@H](CCN2CCCCC2)C[C@@H](C)C(=O)/C=C/C(C)=C/[C@@H]1CN1CCCCC1` [Tildipirosin], the MIC result in [1] is reported as “NI/8.0000 ^”; in assay [2] it was “NI/8.0000 ^”; in assay [3] (Table 4, E. COLH), “NI/4.0000 ^”; in [3] (Table 5, E. COS) it was “NI/8.0000 ^”; in assay [4] it was “NI/4.0000 ^”.
`CC[C@H]1OC(=O)C[C@@H](O)[C@H](C)[C@@H](O[C@@H]2O[C@H](C)[C@@H](O)[C@H](N(C)C)[C@H]2O)[C@@H](CCN2C[C@H](C)C[C@H](C)C2)C[C@@H](C)C(=O)/C=C/C(C)=C/[C@@H]1CO[C@@H]1O[C@H](C)[C@@H](O)[C@@H](OC)[C@H]1OC` [Tilmicosin]: the “Antibiotic resistance” value in assay [3] is on record as “retained resistance”.
As to `CCCNC[C@]1(O)[C@H](C)O[C@@H](O[C@H]2[C@H](C)[C@@H](O[C@@H]3O[C@H](C)C[C@H](N(C)C)[C@H]3O)[C@](C)(O)C[C@@H](C)CN[C@H](C)[C@@H](O)[C@](C)(O)[C@@H](CC)OC(=O)[C@@H]2C)C[C@@]1(C)OC` [Tulathromycin], the MIC entry is given as “NI/32.0000 ^” in assay [1]; “NI/<=8.0000” in assay [2]; “NI/<=8.0000” in assay [3] (Table 4, E. COLH); “NI/<=8.0000” in assay [3] (Table 5, E. COS); “NI/<=8.0000” in assay [4].
Take `CC[C@H]1OC(=O)C[C@@H](O)[C@H](C)[C@@H](O[C@@H]2O[C@H](C)[C@@H](O[C@H]3C[C@@](C)(O)[C@@H](O)[C@H](C)O3)[C@H](N(C)C)[C@H]2O)[C@@H](CC=O)C[C@@H](C)C(=O)/C=C/C(C)=C/[C@@H]1CO[C@@H]1O[C@H](C)[C@@H](O)[C@@H](OC)[C@H]1OC` [Tylosin (Tartrate/Base), Tylosin]: the MIC result in assay [1] is listed as “NI/>32.0000”; in [2], “NI/>32.0000”; in assay [3] (Table 4, E. COLH), “NI/>32.0000^”; in assay [3] (Table 5, E. COS) it was “NI/>32.0000”; in assay [4] it was “NI/>32.0000”.
With Gentamicin, the figures for the “Ring measurement (radius, mm)” value in assay [5], in assay [6] and in assay [7] were 4 mm, 11 mm and 11 mm, respectively. The “Resistance of the strain to the antibiotic (in words)” value (“Resistance of the strain” below) in [6] is “less resistance”. In addition, the “Antibiotic resistance” value in assay [3] is “loss of antibiotic resistance”.
Regarding Neomycin, the “Ring measurement (radius, mm)” value came out at 7 mm in assay [5]; 8 mm in assay [6]; 11 mm in assay [7]; 34 mm in [8] (antibiotic disc, Mueller Hinton plates, ECMS091703HM-SR). Besides, the “Resistance of the strain” value is “less resistance” in assay [6]; “retained resistance” in [7] (disc test); “less resistance” in assay [8] (disc test, ECMS091703HM-SR compared with ECMS091703HM-competent). For the same compound, the “Antibiotic sensitivity” value in assay [2] is on record as “more sensitive”.
As for Penicillin, the “Antibiotic resistance” value in [3] is “retained resistance”.
For the compound Sodium Chlorite [NaClO2], the Turbidity entry was “Pos” in assay [9] (NaClO2 0.03125 mM); “Pos” in assay [9] (NaClO2 0.0625 mM); “Neg” in assay [9] (NaClO2 0.125 mM); “Neg” in assay [9] (NaClO2 0.25 mM); “Neg” in assay [9] (NaClO2 0.5 mM); “Neg” in assay [9] (NaClO2 1 mM). In addition, the Turbidity entry in assay [9] (NaClO2 10 mM) is listed as “Neg”; in assay [10] (NaClO2 0.03125 mM), “Pos”; in assay [10] (NaClO2 0.0625 mM), “Pos”; in assay [10] (NaClO2 0.125 mM) it was “Neg”; in [10] (NaClO2 0.25 mM), “Neg”; in assay [10] (NaClO2 0.5 mM) it was “Neg”. The Turbidity entry in assay [10] (NaClO2 1 mM) and in assay [10] (NaClO2 10 mM) was “Neg” each time.
Sulfatrim [SXT]: the “Ring measurement (radius, mm)” value is given as 11 mm in assay [5], 16 mm in [6] and 17 mm in assay [7]. In addition, the “Resistance of the strain” value in assay [6] is listed as “less resistance”.
For the compound Trimethoprim/Sulphamethoxazole, the MIC result is on record as “NI/<=2.0000” in assay [1]; “NI/<=2.0000” in assay [2]; “NI/<=2.0000” in assay [3] (Table 4, E. COLH); “NI/<=2.0000” in [3] (Table 5, E. COS); “NI/<=2.0000” in assay [4].
